This passage reports Ki results from patent US6664253B2, “Neurokinin antagonists” (Boehringer Ingelheim Pharma KG, priority 2000, dated 2003).

This test has as its target T1, NK1-receptor (substance P-receptor) (Homo sapiens, UniProt P25103).
T1 construct: expressed in transfected cells; host or cells: IM-9 human lymphoblastoma cells
Description: NK1-receptor affinity, displacement of 125I-labelled substance P on IM-9 cells. The test is classed as binding. The following applies: human lymphoblastoma cells (IM-9) with cloned NK1-receptors. The procedure: The receptor affinity to the NK1-receptor (substance P-receptor) is determined on human lymphoblastoma cells (IM-9) with cloned NK1-receptors, by measuring the displacement of ^125I-labelled substance P. The Ki-values thus obtained show the efficacy of the compounds.

T1 sequence (P25103 whole entry): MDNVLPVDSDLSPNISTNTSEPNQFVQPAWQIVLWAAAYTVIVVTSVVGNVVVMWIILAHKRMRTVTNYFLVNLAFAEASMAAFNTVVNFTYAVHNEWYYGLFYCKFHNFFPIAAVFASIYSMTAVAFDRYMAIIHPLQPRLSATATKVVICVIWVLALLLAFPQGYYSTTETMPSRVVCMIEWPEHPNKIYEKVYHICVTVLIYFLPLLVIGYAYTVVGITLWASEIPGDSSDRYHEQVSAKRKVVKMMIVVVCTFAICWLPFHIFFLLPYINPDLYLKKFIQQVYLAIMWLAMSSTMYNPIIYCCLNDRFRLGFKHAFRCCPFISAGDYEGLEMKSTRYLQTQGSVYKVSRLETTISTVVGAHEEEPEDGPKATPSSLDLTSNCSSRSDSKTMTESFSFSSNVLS

For `CNC(=O)NC1CCN(C(C(=O)N(C)CCc2cc(C(F)(F)F)cc(C(F)(F)F)c2)c2ccccc2)CC1` (stereo not drawn) [Example 1, N-[2-(3,5-bis-trifluoromethyl-phenyl)-ethyl]-N-methyl-2-[4-(3-methyl-ureido)-piperidin-1-yl]-2-phenyl-acetamide], affinity was put at a Ki of 0.7 nM.
`CN(CCc1cc(C(F)(F)F)cc(C(F)(F)F)c1)C(=O)[C@H](c1ccccc1)N1CCC(N2CCCOC2=O)CC1` [Example 2, (S)-N-[2-(3,5-bis-trifluoromethyl-phenyl)-ethyl]-N-methyl-2-[4-(2-oxo-[1.3]oxazinan-3-yl)-piperidin-1-yl]-2-phenyl-acetamide] returned a Ki of 1.7 nM.
Take `CN(CCc1cc(C(F)(F)F)cc(C(F)(F)F)c1)C(=O)[C@H](c1ccccc1)N1CCC(N2C(=O)COC2=O)CC1` [Example 3]: the affinity, expressed as Ki, was 0.7 nM.
`CN(CCc1cc(C(F)(F)F)cc(C(F)(F)F)c1)C(=O)[C@H](c1ccccc1)N1CCC(N2CCC(=O)N(C)C2=O)CC1` [Example 4] gave a Ki of 0.6 nM.
`CC1CC(=O)N(C)C(=O)N1C1CCN([C@H](C(=O)N(C)CCc2cc(C(F)(F)F)cc(C(F)(F)F)c2)c2ccccc2)CC1` (stereo partly drawn) [Example 5]: the Ki stood at 0.6 nM.
The compound `CN(CCc1cc(C(F)(F)F)cc(C(F)(F)F)c1)C(=O)[C@H](c1ccccc1)N1CCC(N2CCNC2=O)CC1` [Example 6] displayed a Ki of 3.5 nM.
The result for `CN(CCc1cc(C(F)(F)F)cc(C(F)(F)F)c1)C(=O)[C@H](c1ccccc1)N1CCC(NC(=O)Nc2ccccc2)CC1` [Example 7] reads 0.8 nM; that for `CC(=O)N1CCN(C2CCN(C(C(=O)NCc3cc(C(F)(F)F)cc(C(F)(F)F)c3)c3ccccc3)CC2)C1=O` (stereo not drawn) [Example B-6, reference compound], 165 nM; that for `O=C(Nc1ccccc1)NC1CCN(C(C(=O)NCc2cc(C(F)(F)F)cc(C(F)(F)F)c2)c2ccccc2)CC1` (stereo not drawn) [Example B-7, reference compound], 432 nM.
